Earlier results as cited in patent publication US12584131B2, “Methods of gene therapy” (OREGON HEALTH & SCIENCE UNIVERSITY, priority 2018, dated 2026).
Read-outs that look alike come from different tables or passages of the source.

System: CYP enzymes
[1] = CYP enzymes that activate the prodrug (protoxin)

Compound	Metabolizing CYP [1]	Metabolizing CYP	Metabolizing CYP (listed as acetaminophen)
CN(C)/N=N/c1[nH]cnc1C(N)=O [Dascarbazine]	CYP1A1, CYP1A2, CYP2E1	–	–
O=c1[nH]c(=O)n(C2CCCO2)cc1F (stereo not drawn) [Tegafur]	CYP2A6, CYP1A2, CYP2C8	–	–
CC(=O)Nc1ccc(O)cc1 [Acetaminophen]	–	CYP2E1, CYP1A2, CYP3A4, CYP2D6	CYP1A2, CYP2E1, and CYP3A4
COc1cccc(C2(O)CCCCC2CN(C)C)c1 (stereo not drawn) [Tramadol]	CYP2D6	–	–
C/C=C1\C[C@@H](C)[C@@](C)(O)C(=O)OC/C2=C/CN(C)CC[C@@H](OC1=O)C2=O [Senkirkin]	CYP3A4	–	–
Nc1c2c(nc3ccccc13)CCCC2 [Tacrine]	CYP1A2	–	–
CC(=O)N1CCN(c2ccc(OCC3COC(Cn4ccnc4)(c4ccc(Cl)cc4Cl)O3)cc2)CC1 (stereo not drawn) [Ketoconazole]	CYP3A4	–	–
O=P1(N(CCCl)CCCl)NCCCO1 (stereo not drawn) [Cyclophosphamide]	–	CYP2B6, CYP2C9, CYP3A4	–
